Data: publication PMC10403075, “Short hydrocarbon stapled ApoC2-mimetic peptides activate lipoprotein lipase and lower plasma triglycerides in mice” (Frontiers in Cardiovascular Medicine, 2023)
Residues, ends and D or L forms follow the SMILES beside them.

Columns and labels:
Pepsin = assay: Peptide proteolysis resistance, pepsin; type: in vitro ADME; conditions: peptide 0.1 mM, pepsin 3 mg/ml, 0.02M acetate buffer pH 2, 1 h, MALDI-TOF with internal standards, triplicates
Description: (§1) Peptides (0.1 mM) were incubated at 37°C in 20 mM ammonium bicarbonate buffer at pH 8.2, with 10 ug/ml trypsin or […] Proteinase K. To test resistance to Pepsin, peptides (0.1 mM) were incubated with Pepsin (3 mg/ml) in 0.02M acetate buffer (pH 2). The amount of intact peptide was monitored over time by Matrix-assisted laser desorption/ionization time-of-flight (MALDI-TOF) on a Bruker Autoflex III instrument (Bruker Optics, Inc., USA). Internal standards (Bombesin, ACTH (1–17), ACTH (18–39) and Insulin) were used to quantify the relative amount of peptide in each sample.

LPL from bovine milk [1] = target: T1, LPL from bovine milk (Bos taurus, UniProt P11151); assay: In vitro LPL activation assay after pepsin treatment; type: biochemical; conditions: 1 h pepsin at pH 2, then pH neutralised; compared with untreated peptide, area-under-the-curve, triplicates
T1 construct: LPL from bovine milk (Sigma-Aldrich); purchased Sigma-Aldrich; host or cells: bovine milk (natural source)
T1 sequence (P11151 29-478): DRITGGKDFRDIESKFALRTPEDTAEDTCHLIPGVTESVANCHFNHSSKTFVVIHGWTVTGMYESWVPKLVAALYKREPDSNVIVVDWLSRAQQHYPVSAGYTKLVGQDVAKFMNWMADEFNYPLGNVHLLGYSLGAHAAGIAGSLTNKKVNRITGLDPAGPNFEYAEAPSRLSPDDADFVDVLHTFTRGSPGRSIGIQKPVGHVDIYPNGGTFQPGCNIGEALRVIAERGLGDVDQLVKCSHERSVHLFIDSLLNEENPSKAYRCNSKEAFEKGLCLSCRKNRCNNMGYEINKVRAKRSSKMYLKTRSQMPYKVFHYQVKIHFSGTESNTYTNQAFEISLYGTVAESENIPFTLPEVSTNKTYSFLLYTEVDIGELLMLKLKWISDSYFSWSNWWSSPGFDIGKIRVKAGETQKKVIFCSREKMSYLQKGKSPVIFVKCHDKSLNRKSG
Description: (§2) LPL activity was determined by measuring the generation of non-esterified fatty acids (NEFA). In a 96-well plate, 0–2 µM of an ApoC2 mimetic peptide, 0.83 nM of LPL from bovine milk (Sigma-Aldrich), ApoC2-deficient ethylenediaminetetraacetic acid (EDTA)-plasma (diluted with PBS to a final TG concentration of 0.67 mg/dl), 2 IU/ml heparin, 0.2% fatty acids free bovine serum albumin (BSA) (ICN Biomedicals), and PBS (Life Technologies) were combined in a final reaction volume of 50 μl. The reaction mixture was pre-incubated on ice for 30 min and incubated at 37°C for 1 h. NEFA were measured with a coupled enzyme reaction (Wako Diagnostics) in a Synergy H1 microplate reader (BioTek, USA).
as §1
Figure 4 Peptide proteolysis resistance. […]

[2] = Circular dichroism spectroscopy; type: physicochemical; conditions: CD 190-250 nm
Description: Circular dichroism (CD) spectra were acquired on a Chirascan Q100 spectrometer. CD spectra were recorded in the190–250 nm range, using a 0.1 cm quartz cell and analyzed with Bettsele® on-line software ([24]).

Proteinase K = Proteinase K (Parengyodontium album, UniProt P06873); type: in vitro ADME; conditions: peptide 0.1 mM, 16 ug/kg Proteinase K, 20 mM ammonium bicarbonate pH 8.2, 37°C, MALDI-TOF with internal standards, first time point 3 h, triplicates
Proteinase K, sequence (P06873 106-384): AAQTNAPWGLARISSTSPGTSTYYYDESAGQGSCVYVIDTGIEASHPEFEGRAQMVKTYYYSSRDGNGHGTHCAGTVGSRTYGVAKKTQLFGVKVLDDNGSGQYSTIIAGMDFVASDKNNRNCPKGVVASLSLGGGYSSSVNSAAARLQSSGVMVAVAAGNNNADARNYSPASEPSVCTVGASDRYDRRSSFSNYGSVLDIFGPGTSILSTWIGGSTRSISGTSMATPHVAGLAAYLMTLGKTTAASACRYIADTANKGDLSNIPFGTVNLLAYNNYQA
Description: as §1

[3] = DMPC vesicle clearance (solubilization) assay; type: physicochemical; conditions: peptide 0-100 µM in 20 mM TRIS pH 8.2, DMPC vesicles 0.5 mg/ml in PBS, absorbance 660 nm, 1 h, 24°C
Description: Dimyristoyl Phosphatidyl Choline (DMPC) (Avanti 850345C) vesicles were made by sonication (0.5 mg/ml) in phosphate buffer saline (PBS). Peptides (0, 25, 50 and 100 µM) in 20 mM TRIS, pH 8.2 were added to DMPC vesicles (0.5 mg/ml) prepared by sonication in PBS and turbidity was monitored in a Victor^3 plate reader (Perkin Elmer, USA) by monitoring absorbance at 660 nm for 1 h at 24°C. Samples were shaken at 300 RPM. Absorbance over time was plotted and areas-under-the-curve (AOC) were calculated. PBS was used as a negative control sample and Triton X-100 at a final concentration of 1% (w/v) was used as positive control.

trypsin = assay: Peptide proteolysis resistance, trypsin; type: in vitro ADME; conditions: peptide 0.1 mM, 10 ug/ml trypsin, 20 mM ammonium bicarbonate pH 8.2, 37°C, MALDI-TOF with internal standards, first time point 3 h, triplicates
Description: as §1

LPL from bovine milk [4] = target: T1, LPL from bovine milk; assay: In vitro LPL activity assay (NEFA generation, ApoC2-deficient plasma substrate); type: biochemical; conditions: 0-2 µM peptide, bovine milk LPL, ApoC2-deficient plasma substrate, 37°C 1 h, NEFA read-out, triplicates
Description: as §2

Apoc2^h/h mice = assay: Plasma lipids in ApoC2-hypomorphic mice after peptide injection; type: in vivo, mouse; conditions: single IP 1 umole/kg, n = 5
Description: ApoC2–hypomorphic mice (Apoc2^h/h) ([25]) and human ApoC3-transgenic (hAPOC3-tg) mice ([26]) were fed a regular rodent chow diet (NIH-31 chow diet: Zeigler Brothers Inc.). Peptides dissolved in 20 mM TRIS (pH 8.2) or vehicle control were injected intraperitoneally or intravenously at the indicated concentrations. Blood samples were collected from the retro-orbital sinus with a heparinized capillary tube. Whole blood was centrifuged at 1,000 g for 20 min at 4°C to obtain plasma. All animal procedures were approved by the National Heart, Lung, and Blood Institute Animal Care and Use Committee (protocol #H-0050).

Compound	intact full-length peptide after pepsin incubation (Pepsin)	ability to activate LPL after pepsin treatment (LPL from bovine milk [1])	alpha-helical secondary structure by CD ([2]; 0.1 cm cell, calculated from spectrum)	intact full-length peptide after Proteinase K incubation (Proteinase K)	DMPC vesicle solubilization [3]	intact full-length peptide after trypsin incubation (trypsin)	in vitro LPL activation, dose response (result in words) (LPL from bovine milk [4])	plasma triglycerides, 1-hour time point (Apoc2^h/h mice; 1 h, compared with D6PV)	plasma triglycerides, 3-hour time point (Apoc2^h/h mice; 3 h)	secondary structure by CD (result in words) [2]
CCCC[C@H](NC(=O)[C@H](C)NC(C)=O)C(=O)N[C@]1(C)CCCCCCC=CCCCC2(CCCC=CCCCCCC[C@@](C)(C(=O)N[C@@H](CCCCN)C(=O)N(C)CC(=O)N[C@H](CCC(=O)O)C(=O)N[C@H](CCC(=O)O)C(=O)O)NC(=O)[C@H](C(C)C)NC(=O)[C@H](CO)NC(=O)[C@H](CC(C)C)NC(=O)[C@H](C(C)C)NC(=O)[C@H](CCC(N)=O)NC(=O)[C@H](CC(=O)O)NC2=O)NC(=O)[C@H](Cc2ccccc2)NC(=O)[C@H]([C@@H](C)CC)NC(=O)CNC(=O)[C@H]([C@@H](C)O)NC(=O)[C@H](Cc2ccc(O)cc2)NC(=O)[C@H]([C@@H](C)O)NC1=O (stereo partly drawn) [SP2]	resistant to proteolysis	fully active	46%	resistant to both proteases	most effective in solubilizing DMPC vesicles	resistant to both proteases	slightly more potent than SP1			
CCCCCCCC(=O)NC(C)(C)C(=O)N[C@@H](CCCC)C(=O)N[C@]1(C)CCCCCCC=CCCCC2(CCCC=CCCCCCC[C@@](C)(C(=O)N[C@@H](CCCCN)C(=O)N(C)CC(=O)N[C@H](CCC(=O)O)C(=O)N[C@H](CCC(=O)O)C(=O)O)NC(=O)[C@H](C(C)C)NC(=O)[C@H](CO)NC(=O)[C@H](CC(C)C)NC(=O)[C@H](C(C)C)NC(=O)[C@H](CCC(N)=O)NC(=O)[C@H](CC(=O)O)NC2=O)NC(=O)[C@H](Cc2ccccc2)NC(=O)[C@H]([C@@H](C)CC)NC(=O)CNC(=O)[C@H]([C@@H](C)O)NC(=O)[C@H](Cc2ccc(O)cc2)NC(=O)[C@H]([C@@H](C)O)NC1=O (stereo partly drawn) [SP2a]	highly resistant to proteolysis			highly resistant to proteolysis		highly resistant to proteolysis	more potent than SP1 and D6PV	possibly less effective	lowered plasma triglycerides like D6PV	highly helical
CC[C@H](C)[C@H](NC(=O)CNC(=O)[C@@H](NC(=O)[C@H](Cc1ccc(O)cc1)NC(=O)[C@@H](NC(=O)[C@H](CO)NC(=O)[C@H](CCSC)NC(=O)[C@H](C)N)[C@@H](C)O)[C@@H](C)O)C(=O)N[C@@H](Cc1ccccc1)C(=O)N[C@H](C(=O)N[C@@H](CC(=O)O)C(=O)N[C@@H](CCC(N)=O)C(=O)N[C@H](C(=O)N[C@@H](CC(C)C)C(=O)N[C@@H](CO)C(=O)N[C@H](C(=O)N[C@@H](CC(C)C)C(=O)N[C@@H](CCCCN)C(=O)NCC(=O)N[C@@H](CCC(=O)O)C(=O)N[C@@H](CCC(=O)O)C(=O)O)C(C)C)C(C)C)[C@@H](C)O [P8, reference compound] (H-AMSTYTGIFTDQVLSVLKGEE-OH)					inactive					
